Assays:
SMARCA2 = SMARCA2 (Homo sapiens, UniProt P51531); test: HiBiT assay for protein degradation, Hela SMARCA2-HiBiT cells (A series); format: cell-based; parameters: Hela cells were genetically modified via CRISPR/Cas9 to fuse HiBiT to the carboxy terminus of SMARCA2; host or cells: HeLa (CRISPR/Cas9 HiBiT knock-in); conditions: Hela SMARCA2-HiBiT cells, 24 hours treatment; for DC50: read-out: SMARC A2 Hela HiBit DC50; for Dmax: read-out: SMARC A2 Hela HiBit Dmax (%);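 on SMARC A2 Hela HiBit Dmax (%): 24 h compound treatment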
Sequence of SMARCA2 (P51531 whole entry): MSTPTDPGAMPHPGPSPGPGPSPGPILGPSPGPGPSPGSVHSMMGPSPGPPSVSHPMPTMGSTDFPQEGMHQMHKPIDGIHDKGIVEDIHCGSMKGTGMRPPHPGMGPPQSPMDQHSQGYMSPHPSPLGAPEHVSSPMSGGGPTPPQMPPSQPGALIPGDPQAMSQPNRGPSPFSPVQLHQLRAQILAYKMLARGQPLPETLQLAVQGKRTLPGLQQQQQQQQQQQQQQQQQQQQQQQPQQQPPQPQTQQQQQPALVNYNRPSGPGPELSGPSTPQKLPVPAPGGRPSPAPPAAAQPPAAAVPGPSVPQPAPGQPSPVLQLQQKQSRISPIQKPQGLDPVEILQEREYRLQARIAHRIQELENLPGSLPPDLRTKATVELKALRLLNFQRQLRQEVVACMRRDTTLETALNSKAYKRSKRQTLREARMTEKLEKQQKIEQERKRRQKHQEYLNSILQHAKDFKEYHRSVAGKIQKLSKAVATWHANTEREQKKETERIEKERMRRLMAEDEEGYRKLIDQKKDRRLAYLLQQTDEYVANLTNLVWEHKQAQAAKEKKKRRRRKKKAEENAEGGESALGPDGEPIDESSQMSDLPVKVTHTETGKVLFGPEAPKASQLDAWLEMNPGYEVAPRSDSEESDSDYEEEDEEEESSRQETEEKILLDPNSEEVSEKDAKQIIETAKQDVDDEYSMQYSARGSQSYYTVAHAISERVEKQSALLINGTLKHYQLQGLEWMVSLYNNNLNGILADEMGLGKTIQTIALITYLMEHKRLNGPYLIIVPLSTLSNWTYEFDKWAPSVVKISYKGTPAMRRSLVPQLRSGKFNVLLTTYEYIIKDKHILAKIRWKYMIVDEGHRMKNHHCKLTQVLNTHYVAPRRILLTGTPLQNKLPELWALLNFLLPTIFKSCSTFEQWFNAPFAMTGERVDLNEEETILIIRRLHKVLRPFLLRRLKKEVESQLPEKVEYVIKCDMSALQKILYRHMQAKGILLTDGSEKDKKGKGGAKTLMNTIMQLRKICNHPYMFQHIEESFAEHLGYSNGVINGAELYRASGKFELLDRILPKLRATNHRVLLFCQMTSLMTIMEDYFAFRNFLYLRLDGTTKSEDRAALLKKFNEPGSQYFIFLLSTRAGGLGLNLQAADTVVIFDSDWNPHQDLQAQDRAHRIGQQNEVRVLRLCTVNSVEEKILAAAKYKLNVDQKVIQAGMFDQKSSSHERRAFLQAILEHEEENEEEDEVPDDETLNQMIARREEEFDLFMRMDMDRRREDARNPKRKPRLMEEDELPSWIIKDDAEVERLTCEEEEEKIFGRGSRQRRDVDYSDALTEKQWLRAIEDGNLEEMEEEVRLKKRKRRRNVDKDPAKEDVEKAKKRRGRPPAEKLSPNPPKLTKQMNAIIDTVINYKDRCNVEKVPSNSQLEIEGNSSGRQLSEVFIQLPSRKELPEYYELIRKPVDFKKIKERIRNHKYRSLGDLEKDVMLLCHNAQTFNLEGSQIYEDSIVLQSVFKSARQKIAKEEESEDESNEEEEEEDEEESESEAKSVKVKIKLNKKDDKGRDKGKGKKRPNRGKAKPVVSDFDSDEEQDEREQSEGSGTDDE
In short: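 SMARCA2 degradation was measured in HeLa cells whose endogenous SMARCA2 carries a carboxy-terminal HiBiT tag introduced by CRISPR/Cas9 (Promega CS302365). Cells were maintained in DMEM with FBS and penicillin-streptomycin. SMARCA2 levels were read at the end of the experiment by Nano-Glo® HiBiT lytic luminescence (Promega N3050) and analyzed in GraphPad Prism.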

SMARCA4 = SMARCA4 (Homo sapiens, UniProt P51532); test: HiBiT assay for protein degradation, Hela SMARCA4-HiBiT cells (A series); format: cell-based; parameters: fuse HiBiT to the carboxy terminus of SMARCA2 (Promega CS302365) or SMARCA4 (Promega CS3023225); host or cells: HeLa (CRISPR/Cas9 HiBiT knock-in); conditions: Hela SMARCA4-HiBiT cells, 24 hours treatment; for DC50: read-out: SMARC A4 Hela HiBit DC50; for Dmax: read-out: SMARC A4 Hela HiBit Dmax
Sequence of SMARCA4 (P51532 whole entry): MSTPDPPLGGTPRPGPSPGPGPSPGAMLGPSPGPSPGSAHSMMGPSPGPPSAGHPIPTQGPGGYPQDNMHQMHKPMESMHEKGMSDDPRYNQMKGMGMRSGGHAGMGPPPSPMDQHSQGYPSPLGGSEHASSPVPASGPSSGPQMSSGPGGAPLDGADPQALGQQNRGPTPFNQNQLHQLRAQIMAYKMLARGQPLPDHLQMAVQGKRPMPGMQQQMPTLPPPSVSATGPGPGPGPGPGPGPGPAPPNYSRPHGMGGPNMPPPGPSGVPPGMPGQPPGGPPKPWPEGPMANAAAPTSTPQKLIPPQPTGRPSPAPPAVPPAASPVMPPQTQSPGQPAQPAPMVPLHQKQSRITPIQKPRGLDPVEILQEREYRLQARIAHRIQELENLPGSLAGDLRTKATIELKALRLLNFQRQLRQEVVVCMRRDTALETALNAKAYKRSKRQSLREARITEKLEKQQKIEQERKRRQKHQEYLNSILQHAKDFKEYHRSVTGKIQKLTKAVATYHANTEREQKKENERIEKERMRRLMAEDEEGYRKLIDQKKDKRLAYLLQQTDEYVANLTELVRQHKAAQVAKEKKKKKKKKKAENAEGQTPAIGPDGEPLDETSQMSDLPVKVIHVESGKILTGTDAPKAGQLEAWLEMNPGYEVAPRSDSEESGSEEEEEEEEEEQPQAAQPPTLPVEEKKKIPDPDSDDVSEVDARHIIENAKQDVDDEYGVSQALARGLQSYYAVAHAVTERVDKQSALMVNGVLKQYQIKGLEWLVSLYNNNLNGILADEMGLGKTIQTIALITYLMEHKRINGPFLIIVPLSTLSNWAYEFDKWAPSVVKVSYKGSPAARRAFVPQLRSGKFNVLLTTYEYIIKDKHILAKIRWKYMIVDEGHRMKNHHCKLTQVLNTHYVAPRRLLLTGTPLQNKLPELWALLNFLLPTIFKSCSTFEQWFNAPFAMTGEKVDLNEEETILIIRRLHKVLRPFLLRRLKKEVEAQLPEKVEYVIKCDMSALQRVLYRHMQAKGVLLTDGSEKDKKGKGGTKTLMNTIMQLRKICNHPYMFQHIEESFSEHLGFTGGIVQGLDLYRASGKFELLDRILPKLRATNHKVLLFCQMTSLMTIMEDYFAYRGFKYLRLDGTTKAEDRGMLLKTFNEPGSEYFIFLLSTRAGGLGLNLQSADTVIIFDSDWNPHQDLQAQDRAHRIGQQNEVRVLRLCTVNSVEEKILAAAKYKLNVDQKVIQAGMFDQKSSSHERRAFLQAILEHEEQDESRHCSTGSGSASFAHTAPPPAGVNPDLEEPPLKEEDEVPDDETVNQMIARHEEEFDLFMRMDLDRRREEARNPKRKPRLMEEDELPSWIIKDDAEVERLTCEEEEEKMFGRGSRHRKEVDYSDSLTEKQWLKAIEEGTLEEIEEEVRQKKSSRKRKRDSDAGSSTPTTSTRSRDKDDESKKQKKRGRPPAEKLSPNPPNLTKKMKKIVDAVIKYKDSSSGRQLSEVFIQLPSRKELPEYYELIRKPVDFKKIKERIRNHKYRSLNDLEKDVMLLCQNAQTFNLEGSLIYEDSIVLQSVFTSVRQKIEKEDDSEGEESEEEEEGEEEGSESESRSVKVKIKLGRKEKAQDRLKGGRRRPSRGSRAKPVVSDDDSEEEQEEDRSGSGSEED
In short: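 SMARCA4 degradation was measured in HeLa cells in which HiBiT had been knocked into the SMARCA4 carboxy terminus via CRISPR/Cas9 (Promega CS3023225). Cells were maintained in DMEM with FBS and penicillin-streptomycin. At the end of treatment, SMARCA4 levels were read by lytic HiBiT luminescence (Nano-Glo®, Promega N3050), and data were analyzed with GraphPad Prism.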

Row | DC50 (SMARCA2) | Dmax (SMARCA2) | DC50 (SMARCA4) | Dmax (SMARCA4) | Compound
1 | < 10 nM | > 90% | > 1000 nM | < 50% | Cc1ncsc1-c1ccc([C@H](CN2CC3(COC3)C2)NC(=O)[C@@H]2C[C@@H](O)CN2C(=O)[C@@H](n2cc([C@H]3CC[C@H](CN4CCC(c5ccc6c(c5)-n5c(nc(=O)c7c(Cl)cccc75)C6(C)C)CC4)CC3)nn2)C(C)(C)C)cc1 [Compound A98, (2S,4R)-1-((S)-2-(4-((1r,4S)-4-((4-(4-chloro-7,7-dimethyl-5-oxo-5,7-dihydroindolo[1,2-a]quinazolin-10-yl)piperidin-1-yl)methyl)cyclohexyl)-1H-1,2,3-triazol-1-yl)-3,3-dimethylbutanoyl)-4-hydroxy-N—((R)-1-(4-(4-methylthiazol-5-yl)phenyl)-2-(2-oxa-6-azaspiro[3.3]heptan-6-yl)ethyl)pyrrolidine-2-carboxamide]
2 | < 10 nM | > 90% | > 1000 nM | < 50% | Cc1ncsc1-c1ccc([C@H](CN2CCC3(COC3)C2)NC(=O)[C@@H]2C[C@@H](O)CN2C(=O)[C@@H](n2cc([C@H]3CC[C@H](CN4CCC(c5ccc6c(c5)-n5c(nc(=O)c7c(Cl)cccc75)C6(C)C)CC4)CC3)nn2)C(C)(C)C)cc1 [Compound A99, (2S,4R)-1-((S)-2-(4-((1r,4S)-4-((4-(4-chloro-7,7-dimethyl-5-oxo-5,7-dihydroindolo[1,2-a]quinazolin-10-yl)piperidin-1-yl)methyl)cyclohexyl)-1H-1,2,3-triazol-1-yl)-3,3-dimethylbutanoyl)-4-hydroxy-N—((R)-1-(4-(4-methylthiazol-5-yl)phenyl)-2-(2-oxa-6-azaspiro[3.4]octan-6-yl)ethyl)pyrrolidine-2-carboxamide]
3 | < 10 nM | > 90% | > 1000 nM | 50 to 69% | Cc1ncsc1-c1ccc([C@H](CN2CCOCC2)NC(=O)[C@@H]2C[C@@H](O)CN2C(=O)[C@H](C2CCOCC2)n2cc([C@H]3CC[C@H](CN4CCC(c5ccc6c(c5)-n5c(nc(=O)c7c(Cl)cccc75)C65CCCCC5)CC4)CC3)nn2)cc1 [Compound A100, (2S,4R)-1-((S)-2-(4-((1r,4S)-4-((4-(4′-chloro-5′-oxo-5′H-spiro[cyclohexane-1,7′-indolo[1,2-a]quinazolin]-10′-yl)piperidin-1-yl)methyl)cyclohexyl)-1H-1,2,3-triazol-1-yl)-2-(tetrahydro-2H-pyran-4-yl)acetyl)-4-hydroxy-N—((R)-1-(4-(4-methylthiazol-5-yl)phenyl)-2-morpholinoethyl)pyrrolidine-2-carboxamide]
4 | < 10 nM | > 90% | 10 to 100 nM | 70 to 90% | Cc1ncsc1-c1ccc([C@H](CN2CCOCC2)NC(=O)[C@@H]2C[C@@H](O)CN2C(=O)[C@H](C2CCOCC2)n2cc([C@H]3CC[C@H](CN4CCC(c5ccc6c(c5)-n5c(nc(=O)c7c(Br)cccc75)C65CCCCC5)CC4)CC3)nn2)cc1 [Compound A101, (2S,4R)-1-((S)-2-(4-((1r,4S)-4-((4-(4′-bromo-5′-oxo-5′H-spiro[cyclohexane-1,7′-indolo[1,2-a]quinazolin]-10′-yl)piperidin-1-yl)methyl)cyclohexyl)-1H-1,2,3-triazol-1-yl)-2-(tetrahydro-2H-pyran-4-yl)acetyl)-4-hydroxy-N-((R)-1-(4-(4-methylthiazol-5-yl)phenyl)-2-morpholinoethyl)pyrrolidine-2-carboxamide]
5 | < 10 nM | > 90% | > 1000 nM | 50 to 69% | Cc1ncsc1-c1ccc([C@H](CN2CCOCC2)NC(=O)[C@@H]2C[C@@H](O)CN2C(=O)[C@H](C2CCOCC2)n2cc([C@H]3CC[C@H](CN4CCC(c5ccc6c(c5)-n5c(nc(=O)c7c(Cl)cccc75)C6(C)C)CC4)CC3)nn2)cc1 [Compound A102, (2S,4R)-1-((S)-2-(4-((1r,4S)-4-((4-(4-chloro-7,7-dimethyl-5-oxo-5,7-dihydroindolo[1,2-a]quinazolin-10-yl)piperidin-1-yl)methyl)cyclohexyl)-1H-1,2,3-triazol-1-yl)-2-(tetrahydro-2H-pyran-4-yl)acetyl)-4-hydroxy-N-((R)-1-(4-(4-methylthiazol-5-yl)phenyl)-2-morpholinoethyl)pyrrolidine-2-carboxamide]
6 | < 10 nM | > 90% | < 10 nM | 50 to 69% | Cc1ncsc1-c1ccc([C@H](CN2CCOCC2)NC(=O)[C@@H]2C[C@@H](O)CN2C(=O)[C@H](C(C)C)n2cc([C@H]3CC[C@H](CN4CCC(c5ccc6c(c5)-n5c(nc(=O)c7c(Cl)cccc75)C65CCCCC5)CC4)CC3)nn2)cc1 [Compound A103, (2S,4R)-1-((S)-2-(4-((1r,4S)-4-((4-(4′-chloro-5′-oxo-5′H-spiro[cyclohexane-1,7′-indolo[1,2-a]quinazolin]-10′-yl)piperidin-1-yl)methyl)cyclohexyl)-1H-1,2,3-triazol-1-yl)-3-methylbutanoyl)-4-hydroxy-N-((R)-1-(4-(4-methylthiazol-5-yl)phenyl)-2-morpholinoethyl)pyrrolidine-2-carboxamide]

The next lines start with the compound.

Row | Compound | DC50 (SMARCA2) | Dmax (SMARCA2) | DC50 (SMARCA4) | Dmax (SMARCA4)
7 | COCCOCCOC[C@H](NC(=O)[C@@H]1C[C@@H](O)CN1C(=O)[C@@H](n1cc([C@H]2CC[C@H](CN3CCC(c4ccc5c(c4)-n4c(nc(=O)c6c(Cl)cccc64)C5(C)C)CC3)CC2)nn1)C(C)(C)C)c1ccc(-c2scnc2C)cc1 [Compound A92] | < 10 nM | 70 to 90% | > 1000 nM | < 50%
8 | Cc1ncsc1-c1ccc([C@H](CN2CC(C)(F)C2)NC(=O)[C@@H]2C[C@@H](O)CN2C(=O)[C@@H](n2cc([C@H]3CC[C@H](CN4CCC(c5ccc6c(c5)-n5c(nc(=O)c7c(Cl)cccc75)C6(C)C)CC4)CC3)nn2)C(C)(C)C)cc1 [Compound A93, (2S,4R)-1-((S)-2-(4-((1r,4S)-4-((4-(4-chloro-7,7-dimethyl-5-oxo-5,7-dihydroindolo[1,2-a]quinazolin-10-yl)piperidin-1-yl)methyl)cyclohexyl)-1H-1,2,3-triazol-1-yl)-3,3-dimethylbutanoyl)-N—((R)-2-(3-fluoro-3-methylazetidin-1-yl)-1-(4-(4-methylthiazol-5-yl)phenyl)ethyl)-4-hydroxypyrrolidine-2-carboxamide] | < 10 nM | > 90% | > 1000 nM | < 50%
9 | Cc1ncsc1-c1ccc([C@H](CN2CCC(F)(F)CC2)NC(=O)[C@@H]2C[C@@H](O)CN2C(=O)[C@@H](n2cc([C@H]3CC[C@H](CN4CCC(c5ccc6c(c5)-n5c(nc(=O)c7c(Cl)cccc75)C6(C)C)CC4)CC3)nn2)C(C)(C)C)cc1 [Compound A94, (2S,4R)-1-((S)-2-(4-((1r,4S)-4-((4-(4-chloro-7,7-dimethyl-5-oxo-5,7-dihydroindolo[1,2-a]quinazolin-10-yl)piperidin-1-yl)methyl)cyclohexyl)-1H-1,2,3-triazol-1-yl)-3,3-dimethylbutanoyl)-N—((R)-2-(4,4-difluoropiperidin-1-yl)-1-(4-(4-methylthiazol-5-yl)phenyl)ethyl)-4-hydroxypyrrolidine-2-carboxamide] | < 10 nM | > 90% | > 1000 nM | < 50%
10 | Cc1ncsc1-c1ccc([C@H](CN2CC3(COC3)C2)NC(=O)[C@@H]2C[C@@H](O)CN2C(=O)[C@@H](n2cc([C@H]3CC[C@H](CN4CCC(c5ccc6c(c5)-n5c(nc(=O)c7c(Cl)cccc75)C65CCCCC5)CC4)CC3)nn2)C(C)(C)C)cc1 [Compound A96, (2S,4R)-1-((S)-2-(4-((1r,4S)-4-((4-(4′-chloro-5′-oxo-5′H-spiro[cyclohexane-1,7′-indolo[1,2-a]quinazolin]-10′-yl)piperidin-1-yl)methyl)cyclohexyl)-1H-1,2,3-triazol-1-yl)-3,3-dimethylbutanoyl)-4-hydroxy-N—((R)-1-(4-(4-methylthiazol-5-yl)phenyl)-2-(2-oxa-6-azaspiro[3.3]heptan-6-yl)ethyl)pyrrolidine-2-carboxamide] | < 10 nM | > 90% | > 1000 nM | 50 to 69%
11 | Cc1ncsc1-c1ccc([C@H](CN2CCC3(COC3)C2)NC(=O)[C@@H]2C[C@@H](O)CN2C(=O)[C@@H](n2cc([C@H]3CC[C@H](CN4CCC(c5ccc6c(c5)-n5c(nc(=O)c7c(Cl)cccc75)C65CCCCC5)CC4)CC3)nn2)C(C)(C)C)cc1 [Compound A97, (2S,4R)-1-((S)-2-(4-((1r,4S)-4-((4-(4′-chloro-5′-oxo-5′H-spiro[cyclohexane-1,7′-indolo[1,2-a]quinazolin]-10′-yl)piperidin-1-yl)methyl)cyclohexyl)-1H-1,2,3-triazol-1-yl)-3,3-dimethylbutanoyl)-4-hydroxy-N—((R)-1-(4-(4-methylthiazol-5-yl)phenyl)-2-(2-oxa-6-azaspiro[3.4]octan-6-yl)ethyl)pyrrolidine-2-carboxamide] | < 10 nM | > 90% | > 1000 nM | 50 to 69%
